Results on 20 molecules are retold here after patent US20260334439A1, “BCAT2 INHIBITORS” (Agios Pharmaceuticals, Inc., priority 2023, published 2026).

Assay [1] concerns the target T1, BCAT2 (Homo sapiens, UniProt O15382).
T1 sequence (O15382 28-392): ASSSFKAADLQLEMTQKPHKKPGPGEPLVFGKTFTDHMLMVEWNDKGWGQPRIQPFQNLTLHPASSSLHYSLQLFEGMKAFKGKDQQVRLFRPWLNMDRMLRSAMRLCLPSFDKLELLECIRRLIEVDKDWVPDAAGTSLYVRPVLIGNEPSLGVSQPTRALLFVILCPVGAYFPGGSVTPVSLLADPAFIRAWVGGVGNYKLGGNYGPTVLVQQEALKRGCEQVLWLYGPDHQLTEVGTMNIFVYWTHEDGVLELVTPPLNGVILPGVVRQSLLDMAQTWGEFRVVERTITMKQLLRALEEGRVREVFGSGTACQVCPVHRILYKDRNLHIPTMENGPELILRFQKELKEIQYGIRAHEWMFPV
The assay is described as follows: BCAT2 cell inhibition using engineered A549 cells (MUT KO, BCAT1 KO; 13C6-KMV formation by LC-MS/MS). It is filed as cell-based. Also on record: expressed endogenous BCAT2; endogenous in cells; host or cells: A549 cells, MUT knockout and BCAT1 knockout. The method, boiled down:
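Medium 13C6-KMV formation is read by LC-MS/MS after PFBHA derivatization with d8-KMV internal standard. Cells are CRISPR MUT/BCAT1 double-knockout A549 expressing endogenous BCAT2, given compound 15 min before labelled isoleucine (800 uM, added 1:1) for 24 h. CTG viability run in parallel; replicates averaged.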

Assay [2] addresses T1, BCAT2. The assay is described as follows: BCAT2 in vitro enzyme inhibition assay (hBCAT2, glutamate dehydrogenase/diaphorase/resazurin coupled fluorescence read). It is filed as biochemical. As to conditions: hBCAT2, 1 h preincubation at 25° C., one hour reaction; average where tested multiple times. The method in brief: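 hBCAT2 (0.33 μg/mL in mix) preincubated 1 h at 25 °C with compound (top 100 μM, 3-fold, 10 points) in Tris pH 8.0/NaCl/BSA; substrate mix added (L-leucine, α-ketoglutarate, GDH, NAD, diaphorase, resazurin), quenched with SDS after 1 h, fluorescence Ex 540/Em 590; duplicates, repeat tests averaged.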

The mark [3] stands for this setting: read-out: BCAT2 Cell Inhibition (IC50), engineered A549 cells, 24 hours, 13C6-KMV in media, average where tested multiple times.

As a reminder, the IC50 is the concentration that inhibits the measured activity by half. As to `CN1CC(NC(=O)c2cc(Cl)ccc2O)C[C@H](n2c(-c3ccccc3F)nc3cnc(-c4nc[nH]n4)cc32)C1` (stereo in doubt) [Example 143, 5-chloro-N-(5-(2-(2-fluorophenyl)-6-(1H-1,2,4-triazol-3-yl)-1H-imidazo[4,5-c]pyridin-1-yl)-1-methylpiperidin-3-yl)-2-hydroxybenzamide], the IC50 in assay [1] and in assay [2] was below 100 nM throughout.
As for `CC(C)(O)COc1ccc(Cl)cc1C(=O)N[C@H]1CCC[C@@H](n2c(-c3ccccc3F)nc3cnc(-n4nccn4)cc32)C1` [Example 71, 5-chloro-N-((1S,3R)-3-(2-(2-fluorophenyl)-6-(2H-1,2,3-triazol-2-yl)-1H-imidazo[4,5-c]pyridin-1-yl)cyclohexyl)-2-(2-hydroxy-2-methylpropoxy)benzamide], the IC50 in assay [1] and in assay [2] was below 100 nM throughout.
As for `CCN(C)Cc1nc2cnc(-c3nc[nH]n3)cc2n1[C@@H]1CCC[C@H](NC(=O)c2cc(Cl)ccn2)C1` [Example 24, 4-chloro-N-((1S,3R)-3-(2-((ethyl(methyl)amino)methyl)-6-(1H-1,2,4-triazol-3-yl)-1H-imidazo[4,5-c]pyridin-1-yl)cyclohexyl)picolinamide], the IC50 is above 1000 nM in assay [1] (setting [3]) and 500 to 1000 nM in assay [2].
Turning to `CO[C@H]1C[C@H](N2Cc3ccc(F)cc3C2=O)C[C@H](n2c(-c3c(O)cccc3F)nc3cnc(-c4nc[nH]n4)cc32)C1` [Example 192, 6-fluoro-2-((1R,3S,5R)-3-(2-(2-fluoro-6-hydroxyphenyl)-6-(1H-1,2,4-triazol-3-yl)-1H-imidazo[4,5-c]pyridin-1-yl)-5-methoxycyclohexyl)isoindolin-1-one], the values for the IC50 in assay [1] and in assay [2] were 100 to 500 nM and below 100 nM, respectively.
Regarding `COc1ccc(Cl)cc1C(=O)N[C@@H]1C[C@H](n2c(-c3ncccc3F)nc3cnc(-c4nc[nH]n4)cc32)CN(C)C1` [Example 137, 5-chloro-N-((3R,5S)-5-(2-(3-fluoropyridin-2-yl)-6-(1H-1,2,4-triazol-3-yl)-1H-imidazo[4,5-c]pyridin-1-yl)-1-methylpiperidin-3-yl)-2-methoxybenzamide], the IC50 in assay [1] (setting [3]) was above 1000 nM; in assay [2], 100 to 500 nM.
Regarding `O=c1c2cc(F)ccc2ncn1[C@H]1CCC[C@@H](n2c(-c3ccccc3F)nc3cnc(-c4nc[nH]n4)cc32)C1` [Example 209, 6-fluoro-3-((1S,3R)-3-(2-(2-fluorophenyl)-6-(1H-1,2,4-triazol-3-yl)-1H-imidazo[4,5-c]pyridin-1-yl)cyclohexyl)quinazolin-4(3H)-one], the IC50 in assay [1] and in assay [2] was below 100 nM each time.
For the molecule `O=C(N[C@H]1CCC[C@@H](n2c(-c3ccccc3OCCO)nc3cnc(-c4nc[nH]n4)cc32)C1)c1cc(Cl)ccc1F` [Example 86, 5-chloro-2-fluoro-N-((1S,3R)-3-(2-(2-(2-hydroxyethoxy)phenyl)-6-(1H-1,2,4-triazol-3-yl)-1H-imidazo[4,5-c]pyridin-1-yl)cyclohexyl)benzamide], the IC50 in assay [1] was 100 to 500 nM; in assay [2], below 100 nM.
As for `O=C(N[C@H]1CCC[C@@H](n2c(-c3ccccc3F)nc3cnc(-c4nc[nH]n4)cc32)C1)c1cc(Cl)ccc1OC(F)(F)F` [Example 4, 5-chloro-N-((1S,3R)-3-(2-(2-fluorophenyl)-6-(1H-1,2,4-triazol-3-yl)-1H-imidazo[4,5-c]pyridin-1-yl)cyclohexyl)-2-(trifluoromethoxy)benzamide], the results for the IC50 in assay [1] and in assay [2] were 500 to 1000 nM and below 100 nM, respectively.
As for `O=C1c2cc(F)ccc2CN1[C@H]1CCC[C@@H](n2c(-c3ncccc3F)nc3cnc(-c4nc[nH]n4)cc32)C1` [Example 170, 6-fluoro-2-((1S,3R)-3-(2-(3-fluoropyridin-2-yl)-6-(1H-1,2,4-triazol-3-yl)-1H-imidazo[4,5-c]pyridin-1-yl)cyclohexyl)isoindolin-1-one], the IC50 in assay [1] and in assay [2] was below 100 nM in each case.
As to `O=C(N[C@H]1CCC[C@@H](n2c(-c3ncccc3F)nc3cnc(-c4nc[nH]n4)cc32)C1)c1cc(F)ccc1F` [Example 80, 2,5-difluoro-N-((1S,3R)-3-(2-(3-fluoropyridin-2-yl)-6-(1H-1,2,4-triazol-3-yl)-1H-imidazo[4,5-c]pyridin-1-yl)cyclohexyl)benzamide], the IC50 was 100 to 500 nM in assay [1] and below 100 nM in assay [2].
Consider `O=C1c2cc(Cl)ccc2CN1[C@H]1CCC[C@@H](n2c(-c3ccccc3OCCO)nc3cnc(-c4nc[nH]n4)cc32)C1` [Example 172, 6-chloro-2-((1S,3R)-3-(2-(2-(2-hydroxyethoxy)phenyl)-6-(1H-1,2,4-triazol-3-yl)-1H-imidazo[4,5-c]pyridin-1-yl)cyclohexyl)isoindolin-1-one], for which the 50% inhibitory concentration (IC50) in assay [1] and in assay [2] was below 100 nM throughout.
As to `CN1C[C@H](NC(=O)c2cc(Cl)ccn2)C[C@H](n2c(-c3ccccc3F)nc3cnc(-c4nc[nH]n4)cc32)C1` [Example 130, 4-chloro-N-((3R,5S)-5-(2-(2-fluorophenyl)-6-(1H-1,2,4-triazol-3-yl)-1H-imidazo[4,5-c]pyridin-1-yl)-1-methylpiperidin-3-yl)picolinamide], the 50% inhibitory concentration (IC50) in assay [1] and in assay [2] was below 100 nM each time.
Consider `CN(C)CCOc1ccc(Cl)cc1C(=O)N[C@H]1CCC[C@@H](n2c(-c3ccccc3F)nc3cnc(-c4nc[nH]n4)cc32)C1` [Example 55, 5-chloro-2-(2-(dimethylamino)ethoxy)-N-((1S,3R)-3-(2-(2-fluorophenyl)-6-(1H-1,2,4-triazol-3-yl)-1H-imidazo[4,5-c]pyridin-1-yl)cyclohexyl)benzamide], for which the IC50 in assay [1] (setting [3]) was above 1000 nM; in assay [2] it was below 100 nM.
Turning to `O=C1c2cc(F)ccc2NCN1[C@H]1CCC[C@@H](n2c(-c3ccccc3F)nc3cnc(-c4nc[nH]n4)cc32)C1` [Example 208, 6-fluoro-3-((1S,3R)-3-(2-(2-fluorophenyl)-6-(1H-1,2,4-triazol-3-yl)-1H-imidazo[4,5-c]pyridin-1-yl)cyclohexyl)-2,3-dihydroquinazolin-4(1H)-one], the concentration for half-maximal inhibition (IC50) in assay [1] and in assay [2] was below 100 nM each time.
In the case of `O=C(N[C@H]1CCC[C@@H](n2c(-c3ccccn3)nc3cnc(-c4nc[nH]n4)cc32)C1)c1cc(Cl)ccn1` [Example 25, 4-chloro-N-((1S,3R)-3-(2-(pyridin-2-yl)-6-(1H-1,2,4-triazol-3-yl)-1H-imidazo[4,5-c]pyridin-1-yl)cyclohexyl)picolinamide], the IC50 in assay [1] was 100 to 500 nM; in assay [2], below 100 nM.
For `COc1ccc(Cl)cc1C(=O)N[C@@H]1C[C@H](n2c(-c3ccccc3F)nc3cnc(-c4nc[nH]n4)cc32)CN(C)C1` [Example 136, 5-chloro-N-((3R,5S)-5-(2-(2-fluorophenyl)-6-(1H-1,2,4-triazol-3-yl)-1H-imidazo[4,5-c]pyridin-1-yl)-1-methylpiperidin-3-yl)-2-methoxybenzamide], the values for the IC50 in assay [1] and in assay [2] were 100 to 500 nM and below 100 nM, respectively.
On to `O=C(N[C@H]1CCC[C@@H](n2c(-c3c(O)cccc3F)nc3cnc(-c4nc[nH]n4)cc32)C1)c1cc(Cl)ccn1` [Example 70, 4-chloro-N-((1S,3R)-3-(2-(2-fluoro-6-hydroxyphenyl)-6-(1H-1,2,4-triazol-3-yl)-1H-imidazo[4,5-c]pyridin-1-yl)cyclohexyl)picolinamide], for which the IC50 in assay [1] and in assay [2] was below 100 nM throughout.
For the molecule `O=C1c2cc(Cl)ccc2CN1[C@H]1CCC[C@@H](n2c(-c3ccccc3F)nc3cnc(-c4nc[nH]n4)cc32)[C@@H]1O` [Example 183, 6-chloro-2-((1S,2S,3R)-3-(2-(2-fluorophenyl)-6-(1H-1,2,4-triazol-3-yl)-1H-imidazo[4,5-c]pyridin-1-yl)-2-hydroxycyclohexyl)isoindolin-1-one], the IC50 in assay [1] and in assay [2] was below 100 nM in each case.
For the molecule `O=C(N[C@H]1CCC[C@@H](n2c(-c3ccccc3F)nc3cnc(-n4nccn4)cc32)C1)c1cc(Cl)ccc1OCCO` [Example 68, 5-chloro-N-((1S,3R)-3-(2-(2-fluorophenyl)-6-(2H-1,2,3-triazol-2-yl)-1H-imidazo[4,5-c]pyridin-1-yl)cyclohexyl)-2-(2-hydroxyethoxy)benzamide], the 50% inhibitory concentration (IC50) in assay [1] and in assay [2] was below 100 nM each time.
For the molecule `O=C(N[C@H]1CCC[C@@H](n2c(-c3ccccc3OCCO)nc3cnc(-c4nc[nH]n4)cc32)C1)c1cc(F)ccc1F` [Example 85, 2,5-difluoro-N-((1S,3R)-3-(2-(2-(2-hydroxyethoxy)phenyl)-6-(1H-1,2,4-triazol-3-yl)-1H-imidazo[4,5-c]pyridin-1-yl)cyclohexyl)benzamide], the results for the IC50 in assay [1] and in assay [2] were 100 to 500 nM and below 100 nM, respectively.
